# Where “and” joins values, the source holds several entries; their conditions need not be identical. Equal values may be shown once. Toxic doses and inconclusive results are not listed. Square brackets hold non-standard residues; d marks the D form. Peptide text beside a SMILES is read from it. ξ: configuration not given here. ξPhe(4-N(CH2CH2Cl)2) = NC(Cc1ccc(N(CCCl)CCCl)cc1)C(=O)O
# Tested on: P388 leukemia ip, CD2F1 mice, survival T/C
# Assay: NCI In Vivo Anticancer Drug Screen. Data for tumor model P388 Leukemia (intraperitoneal) in CD2F1 (CDF1) mice
# Details: endpoint: median survival time, higher = longer survival
# Method in brief: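 Mice carrying the transplanted tumor received test compound or vehicle. Survival was recorded in each group, and the value is the treated-group measurement divided by that of the vehicle-treated control group.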
# [1] = dose: 50.0 mg/kg/injection, schedule: Q01DX009 (ip), vehicle: saline with Tween-80
# [2] = dose: 100.0 mg/kg/injection, schedule: Q01DX009 (ip), vehicle: saline with Tween-80
# [3] = dose: 200.0 mg/kg/injection, schedule: Q01DX009 (ip), vehicle: saline with Tween-80
# [4] = dose: 50.0 mg/kg/injection, schedule: Q01DX009 (ip), vehicle: Klucel (hydroxypropylcellulose) (HPC)
compound,measurement,setting,value
C1CN2CCN3CCCN(CCN(C1)C2)C3,T/C,"dose: 12.5 mg/kg/injection, schedule: Q01DX005 (ip), vehicle: saline",102 % of control
same,T/C,"dose: 25.0 mg/kg/injection, schedule: Q01DX005 (ip), vehicle: saline",107 % of control
same,T/C,"dose: 50.0 mg/kg/injection, schedule: Q01DX005 (ip), vehicle: saline with Tween-80",101 % of control
C[n+]1ccc(C(=O)O)cc1 (tested in a mixture with another compound),T/C,"dose: 100.0 mg/kg/injection, schedule: Q04DX003 (ip), vehicle: saline",104 % of control
same,T/C,"dose: 200.0 mg/kg/injection, schedule: Q04DX003 (ip), vehicle: saline",98 % of control
same,T/C,"dose: 400.0 mg/kg/injection, schedule: Q04DX003 (ip), vehicle: saline",98 % of control
O=C(O)c1ccccc1N=N/C(=N\Nc1ccccc1C(=O)O)c1ccnc2ccccc12,T/C,[1],100 % of control
same,T/C,[2],97 % of control
same,T/C,[3],103 % of control
CCN(CC)CCCC(C)Nc1c(C)cnc2cc(Cl)ccc12 (stereo unspecified),T/C,"dose: 50.0 mg/kg/injection, schedule: Q01DX005 (ip), vehicle: saline",98 % of control
same,T/C,"dose: 100.0 mg/kg/injection, schedule: Q01DX005 (ip), vehicle: saline",108 % of control
COC(=O)c1c(SC)c2sc3ccccc3c2oc1=O,T/C,"dose: 6.25 mg/kg/injection, schedule: Q04DX002 (ip), vehicle: saline with Tween-80",100 % of control
same,T/C,"dose: 12.5 mg/kg/injection, schedule: Q04DX002 (ip), vehicle: saline with Tween-80",106 % of control
same,T/C,"dose: 25.0 mg/kg/injection, schedule: Q04DX002 (ip), vehicle: saline with Tween-80",99 % of control
CCN(CCO)C(=O)Nc1ccc(Cl)cc1,T/C,"dose: 60.0 mg/kg/injection, schedule: Q01DX005 (ip), vehicle: Klucel + Tween-80",99 % of control
same,T/C,"dose: 120.0 mg/kg/injection, schedule: Q01DX005 (ip), vehicle: Klucel + Tween-80",101 % of control
same,T/C,"dose: 240.0 mg/kg/injection, schedule: Q01DX005 (ip), vehicle: Klucel + Tween-80",100 % of control
C=CC1CN2CCC1CC2C(O)c1ccnc2ccc(OC)cc12 (stereo unspecified) (tested in a mixture with another compound),T/C,[1],109 % of control
same,T/C,[2],109 % of control
CCCN1C(=O)Cc2ccccc21,T/C,"dose: 100.0 mg/kg/injection, schedule: Q01DX001 (ip), vehicle: Klucel (hydroxypropylcellulose) (HPC)",95 % of control
same,T/C,"dose: 200.0 mg/kg/injection, schedule: Q01DX001 (ip), vehicle: Klucel (hydroxypropylcellulose) (HPC)",97 % of control
same,T/C,"dose: 400.0 mg/kg/injection, schedule: Q01DX001 (ip), vehicle: Klucel (hydroxypropylcellulose) (HPC)",100 % of control
O=C1NC(=O)C(F)(F)C(O)N1 (stereo unspecified),T/C,"dose: 75.0 mg/kg/injection, schedule: Q04DX002 (ip), vehicle: saline",109 % of control
same,T/C,"dose: 100.0 mg/kg/injection, schedule: Q01DX009 (ip), vehicle: saline sonified",154 % of control
same,T/C,"dose: 150.0 mg/kg/injection, schedule: Q01DX009 (ip), vehicle: saline sonified",172 % of control
same,T/C,"dose: 150.0 mg/kg/injection, schedule: Q04DX002 (ip), vehicle: saline",109 % of control
same,T/C,"dose: 220.0 mg/kg/injection, schedule: Q01DX009 (ip), vehicle: saline sonified",177 % of control
same,T/C,"dose: 300.0 mg/kg/injection, schedule: Q04DX002 (ip), vehicle: saline",116 % of control
same,T/C,"dose: 600.0 mg/kg/injection, schedule: Q04DX002 (ip), vehicle: saline",106 % of control
same,T/C,"dose: 1200.0 mg/kg/injection, schedule: Q04DX002 (ip), vehicle: saline",104 % of control
CCCCCCCCCCCCCCOc1ccc(C(C)=O)o1,T/C,[1],95 % of control
same,T/C,[3],100 % of control
N#Cc1c(N)nc2c(c1N)CC(CO)O2 (stereo unspecified),T/C,[1],96 % of control
same,T/C,[2],93 % of control
Cc1ccc2c(ccc3c[n+]4ccccc4c(C)c32)c1,T/C,"dose: 2.2 mg/kg/injection, schedule: Q01DX009 (ip), vehicle: saline with Tween-80",122 % of control
same,T/C,"dose: 3.3 mg/kg/injection, schedule: Q01DX009 (ip), vehicle: saline with Tween-80",114 % of control
same,T/C,"dose: 5.0 mg/kg/injection, schedule: Q01DX009 (ip), vehicle: saline with Tween-80",122 % of control
same,T/C,"dose: 6.25 mg/kg/injection, schedule: Q04DX003 (ip), vehicle: other",112 % of control
same,T/C,"dose: 7.5 mg/kg/injection, schedule: Q01DX009 (ip), vehicle: saline with Tween-80",120 % of control
same,T/C,"dose: 12.5 mg/kg/injection, schedule: Q04DX003 (ip), vehicle: other",112 % of control
same,T/C,"dose: 25.0 mg/kg/injection, schedule: Q04DX003 (ip), vehicle: other",108 % of control
CCCC[N+]1(C)CCC(OC(=O)C(O)(c2ccccc2)C2CCCC2)C1 (stereo unspecified),T/C,"dose: 12.5 mg/kg/injection, schedule: Q01DX009 (ip), vehicle: Klucel (hydroxypropylcellulose) (HPC)",95 % of control
same,T/C,"dose: 25.0 mg/kg/injection, schedule: Q01DX009 (ip), vehicle: Klucel (hydroxypropylcellulose) (HPC)",90 % of control
same,T/C,[4],98 % of control and 89 % of control
CC[C@@]1(O)C[C@H](OC2CC(N(C)C)C(OC3CC4OC5CC(=O)C(C)OC5OC4C(C)O3)C(C)O2)c2c(cc3c(c2O)C(=O)c2c(O)cccc2C3=O)[C@H]1C(=O)OC (stereo partly specified),T/C,"dose: 0.12 mg/kg/injection, schedule: Q01DX009 (ip), vehicle: water",117 % of control
same,T/C,"dose: 0.25 mg/kg/injection, schedule: Q01DX009 (ip), vehicle: water",115 % of control
same,T/C,"dose: 0.5 mg/kg/injection, schedule: Q01DX009 (ip), vehicle: water",110 % of control
same,T/C,"dose: 1.0 mg/kg/injection, schedule: Q01DX009 (ip), vehicle: water",110 % of control
same,T/C,"dose: 4.0 mg/kg/injection, schedule: Q01DX009 (ip), vehicle: water",162 % of control
CC(=O)CC(=O)c1ccc(Br)cc1.CC(=O)CC(=O)c1ccc(Br)cc1.[Ni],T/C,"dose: 100.0 mg/kg/injection, schedule: Q01DX001 (ip), vehicle: saline with Tween-80",90 % of control
same,T/C,"dose: 200.0 mg/kg/injection, schedule: Q01DX001 (ip), vehicle: saline with Tween-80",87 % of control
same,T/C,"dose: 400.0 mg/kg/injection, schedule: Q01DX001 (ip), vehicle: saline with Tween-80",90 % of control
OC1(c2ccccc2)C2CC1C2 (stereo unspecified),T/C,"dose: 100.0 mg/kg/injection, schedule: Q04DX002 (ip), vehicle: saline",104 % of control
same,T/C,"dose: 200.0 mg/kg/injection, schedule: Q04DX002 (ip), vehicle: saline",101 % of control
same,T/C,"dose: 400.0 mg/kg/injection, schedule: Q04DX002 (ip), vehicle: saline",102 % of control
Cc1[nH]c(=O)[nH]c(=O)c1CO,T/C,[1],100 % of control
same,T/C,[2],102 % of control
same,T/C,[3],101 % of control
same,T/C,"dose: 400.0 mg/kg/injection, schedule: Q01DX009 (ip), vehicle: saline with Tween-80",100 % of control
COC(=O)n1c(=O)oc2ccc(Br)cc21,T/C,"dose: 50.0 mg/kg/injection, schedule: Q01DX005 (ip), vehicle: Klucel (hydroxypropylcellulose) (HPC)",104 % of control
same,T/C,"dose: 100.0 mg/kg/injection, schedule: Q01DX005 (ip), vehicle: Klucel (hydroxypropylcellulose) (HPC)",106 % of control
same,T/C,"dose: 200.0 mg/kg/injection, schedule: Q01DX005 (ip), vehicle: Klucel (hydroxypropylcellulose) (HPC)",102 % of control
CCCCCCCCCCCCCC1C=CCC1 (stereo unspecified),T/C,"dose: 100.0 mg/kg/injection, schedule: Q01DX001 (ip), vehicle: saline",101 % of control
same,T/C,"dose: 200.0 mg/kg/injection, schedule: Q01DX001 (ip), vehicle: saline",99 % of control
same,T/C,"dose: 400.0 mg/kg/injection, schedule: Q01DX001 (ip), vehicle: saline",100 % of control
C1=C(C2=C[P+](c3ccccc3)(c3ccccc3)C=C(c3ccccc3)O2)OC(c2ccccc2)=C[P+]1(c1ccccc1)c1ccccc1,T/C,"dose: 12.5 mg/kg/injection, schedule: Q01DX005 (ip), vehicle: saline with Tween-80",103 % of control
same,T/C,"dose: 25.0 mg/kg/injection, schedule: Q01DX005 (ip), vehicle: saline with Tween-80",100 % of control
CCOC(=O)C(Cc1ccc(N(CCCl)CCCl)cc1)NC(=O)C(CCC(=O)O)NC(=O)C(CO)NC(=O)C(CCC(=O)O)NC(=O)C(N)CO (stereo unspecified) (H-SESE[ξPhe(4-N(CH2CH2Cl)2)]-OEt; configuration not given here),T/C,"dose: 5.0 mg/kg/injection, schedule: Q04DX003 (ip), vehicle: water",95 % of control
same,T/C,"dose: 10.0 mg/kg/injection, schedule: Q04DX003 (ip), vehicle: water",106 % of control
same,T/C,"dose: 20.0 mg/kg/injection, schedule: Q04DX003 (ip), vehicle: water",94 % of control
same,T/C,"dose: 40.0 mg/kg/injection, schedule: Q04DX003 (ip), vehicle: water",105 % of control and 119 % of control
Cc1ccc(N=Cc2cccs2)cc1,T/C,[4],115 % of control
same,T/C,"dose: 100.0 mg/kg/injection, schedule: Q01DX009 (ip), vehicle: Klucel (hydroxypropylcellulose) (HPC)",115 % of control
CCCCCCC(=O)CC1(C(=O)OC)NC(=S)NC(=O)C1C#N (stereo unspecified),T/C,"dose: 60.0 mg/kg/injection, schedule: Q01DX005 (ip), vehicle: Klucel (hydroxypropylcellulose) (HPC)",100 % of control
same,T/C,"dose: 120.0 mg/kg/injection, schedule: Q01DX005 (ip), vehicle: Klucel (hydroxypropylcellulose) (HPC)",103 % of control
same,T/C,"dose: 240.0 mg/kg/injection, schedule: Q01DX005 (ip), vehicle: Klucel (hydroxypropylcellulose) (HPC)",97 % of control

# From PubChem BioAssay AID330 (DTP/NCI, 2004)
